Measurements published in patent US20160137639A1, “TRIAZOLE-ISOXAZOLE COMPOUND AND MEDICAL USE THEREOF” (JAPAN TOBACCO INC., priority 2012, published 2016).
Like-named read-outs stand apart in the source and are kept apart here.

Key:
mouse RORγ = molecular target: T1, mouse RORγ (Mus musculus, UniProt P51450); assay: Luciferase reporter gene assay of inhibitory effect against RORγ transcriptional activity (GAL4-mRORγ plasmid in CHO cells); type: cell-based
T1 construct: mouse, NM_011281.2 and from Ile251 to Lys516; expressed in transfected cells; host or cells: CHO cells (transient co-transfection with pG5-Luc reporter)
T1 sequence (P51450 251-516): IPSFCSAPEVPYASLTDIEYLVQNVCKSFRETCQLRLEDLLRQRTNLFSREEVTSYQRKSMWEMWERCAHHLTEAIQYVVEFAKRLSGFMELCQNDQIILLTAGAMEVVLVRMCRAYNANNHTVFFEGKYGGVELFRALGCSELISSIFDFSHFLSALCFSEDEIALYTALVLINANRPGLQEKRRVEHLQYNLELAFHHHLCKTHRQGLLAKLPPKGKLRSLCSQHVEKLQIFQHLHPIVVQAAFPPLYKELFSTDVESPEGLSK
Procedure, shortened: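 CHO cells transiently co-transfected with GAL4-mouse RORγ LBD (Ile251–Lys516) and GAL4-dependent luciferase reporter; eight compound concentrations, 0.1% DMSO, 2 days at 37 °C. Luminescence as %-of-vehicle control; EC50 by curve fit, cytotoxic concentrations excluded.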

human RORγ = molecular target: T2, human RORγ (Homo sapiens, UniProt P51449); assay: Luciferase reporter gene assay of inhibitory effect against RORγ transcriptional activity (GAL4-hRORγ plasmid in CHO cells); type: cell-based
T2 construct: human, NM_005060.3 and from Ser253 to Lys518; expressed in transfected cells; host or cells: CHO cells (transient co-transfection with pG5-Luc reporter)
T2 sequence (P51449 253-518): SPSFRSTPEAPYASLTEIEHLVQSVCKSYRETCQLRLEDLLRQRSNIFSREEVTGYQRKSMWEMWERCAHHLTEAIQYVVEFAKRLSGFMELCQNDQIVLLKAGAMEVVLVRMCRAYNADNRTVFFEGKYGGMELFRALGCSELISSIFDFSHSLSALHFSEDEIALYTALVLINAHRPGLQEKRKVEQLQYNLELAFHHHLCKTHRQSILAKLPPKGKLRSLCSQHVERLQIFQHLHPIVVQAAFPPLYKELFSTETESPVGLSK

## CC(=O)N1C[C@H](C(=O)Nc2ccc(C)cc2C)[C@@H](c2nnc(-c3cc(CCC(C)C)on3)n2C2CC2)C1 [Example F-632]
Mouse RORγ; read-out: LUC EC50 mRORg
  EC50: < 3 µM
Human RORγ; read-out: LUC EC50 hRORg
  EC50: < 3 µM

## COc1ccc(C)c(NC(=O)CCc2nnc(CCC(C)C)n2C2CC2)c1 [Example F-92]
Mouse RORγ; read-out: LUC EC50 (μM) mRORg
  EC50: > 3 µM
Human RORγ; read-out: LUC EC50 (μM) hRORg
  EC50: > 3 µM

## Cc1c(Cl)cccc1NC(=O)CCc1nnc(CCOC(C)(C)C(F)(F)F)n1C1CC1 [Example F-304]
Mouse RORγ; read-out: LUC EC50 (μM) mRORg
  EC50: < 3 µM
Human RORγ; read-out: LUC EC50 (μM) hRORg
  EC50: < 3 µM

## Cc1ccc(NC(=O)CCc2noc([C@H]3C[C@@H](CC(C)(C)C)C3)c2COCC(=O)O)c(Cl)c1 [Example F-704]
Mouse RORγ; read-out: LUC EC50 mRORg
  EC50: > 3 µM
Human RORγ; read-out: LUC EC50 hRORg
  EC50: > 3 µM

## Cc1ccc(NC(=O)C[C@H](CCC(=O)O)c2noc3c2C(C)CCC3CCC(C)C)c(Cl)c1 (single isomer, unassigned) [Example F-694]
Mouse RORγ; read-out: LUC EC50 mRORg
  EC50: < 3 µM
Human RORγ; read-out: LUC EC50 hRORg
  EC50: < 3 µM

## CC(C)(C)C[C@H]1C[C@@H](c2onc([C@@H](CCC(=O)O)CC(=O)NC3CCC3)c2C2CC2)C1 [Example F-711]
Mouse RORγ; read-out: LUC EC50 mRORg
  EC50: > 3 µM
Human RORγ; read-out: LUC EC50 hRORg
  EC50: > 3 µM

## Cc1ccc(NC(=O)C[C@H](CCC(=O)O)c2noc(-c3cc(C(F)(F)CC(C)C)on3)c2C2CC2)c(Cl)c1 [Example E-33]
Mouse RORγ; read-out: LUC EC50 (μM) mRORg
  EC50: < 3 µM
Human RORγ; read-out: LUC EC50 (μM) hRORg
  EC50: < 3 µM

## Cc1ccc(NC(=O)CC(c2nnc([C@H]3C[C@@H](CC(C)C)C3)n2C2CC2)C2CN(C)C2)c(C)c1 (mixture of isomers) [Example F-469]
Mouse RORγ; read-out: LUC EC50 (μM) mRORg
  EC50: > 3 µM
Human RORγ; read-out: LUC EC50 (μM) hRORg
  EC50: > 3 µM

## Cc1c(Cl)cccc1NC(=O)CCc1nnc(CC[C@H]2CC[C@H](C(=O)O)CC2)n1C1CC1 [Example F-243]
Mouse RORγ; read-out: LUC EC50 (μM) mRORg
  EC50: > 3 µM
Human RORγ; read-out: LUC EC50 (μM) hRORg
  EC50: < 3 µM

## Cc1ccc(NC(=O)[C@H]2C(=O)N(C)C[C@@H]2c2nnc(CCCC(C)(C)C)n2C2CC2)c(C)c1 [Example F-302]
Mouse RORγ; read-out: LUC EC50 (μM) mRORg
  EC50: < 3 µM
Human RORγ; read-out: LUC EC50 (μM) hRORg
  EC50: < 3 µM

## Cc1ccc(NC(=O)[C@H]2CC(=O)C[C@@H]2c2nnc([C@H]3C[C@@H](CC(C)C)C3)n2C2CC2)c(C)c1 (racemic) [Example F-533]
Mouse RORγ; read-out: LUC EC50 mRORg
  EC50: < 3 µM
Human RORγ; read-out: LUC EC50 hRORg
  EC50: < 3 µM

## CC(=O)N1C[C@H](C(=O)Nc2ccc(F)cc2C)[C@@H](c2nnc([C@H]3C[C@@H](CC(C)C)C3)n2C2CC2)C1 [Example F-600]
Mouse RORγ; read-out: LUC EC50 mRORg
  EC50: < 3 µM
Human RORγ; read-out: LUC EC50 hRORg
  EC50: < 3 µM

## CC(=O)N1C[C@@H](C(=O)Nc2ccc(C)cc2C)[C@H](c2nnc(C3CC4(CCCCC4)C3)n2C2CC2)C1 [Example F-474]
Mouse RORγ; read-out: LUC EC50 (μM) mRORg
  EC50: < 3 µM
Human RORγ; read-out: LUC EC50 (μM) hRORg
  EC50: > 3 µM

## Cc1c(NC(=O)C[C@H](CCO)c2nnc(-c3cc(CC(C)C)on3)n2C2CC2)ccc(F)c1F [Example F-662]
Mouse RORγ; read-out: LUC EC50 mRORg
  EC50: < 3 µM
Human RORγ; read-out: LUC EC50 hRORg
  EC50: < 3 µM

## COC1(CC(C)C)CC(c2nnc([C@H]3CN(C(C)=O)C[C@@H]3C(=O)Nc3ccc(C)cc3C)n2C2CC2)C1 (single isomer, unassigned) [Example F-482]
Mouse RORγ; read-out: LUC EC50 (μM) mRORg
  EC50: < 3 µM
Human RORγ; read-out: LUC EC50 (μM) hRORg
  EC50: < 3 µM

## Cc1ccc(NC(=O)C[C@H](CCCO)c2noc([C@H]3C[C@@H](CC(C)(C)C)C3)c2C2CC2)c(Cl)c1 [Example F-672]
Mouse RORγ; read-out: LUC EC50 mRORg
  EC50: < 3 µM
Human RORγ; read-out: LUC EC50 hRORg
  EC50: < 3 µM

## Cc1ccc(NC(=O)C[C@H](CCC(=O)O)c2nnc([C@H]3C[C@@H](CC(C)(C)C(C)C)C3)n2C2CC2(F)F)c(Cl)c1 (mixture of isomers) [Example F-714]
Mouse RORγ; read-out: LUC EC50 mRORg
  EC50: < 3 µM
Human RORγ; read-out: LUC EC50 hRORg
  EC50: < 3 µM

## Cc1c(Cl)cccc1NC(=O)CCc1nnc(C(C)CC(C)C)n1C1CC1 (racemic) [Example F-98]
Mouse RORγ; read-out: LUC EC50 (μM) mRORg
  EC50: < 3 µM
Human RORγ; read-out: LUC EC50 (μM) hRORg
  EC50: > 3 µM

## Cc1noc(NC(=O)C[C@H](CCC(=O)O)c2noc([C@H]3C[C@@H](CC(C)(C)C)C3)c2C2CC2)c1C [Example F-679]
Mouse RORγ; read-out: LUC EC50 mRORg
  EC50: < 3 µM
Human RORγ; read-out: LUC EC50 hRORg
  EC50: < 3 µM

## Cc1ccc(NC(=O)C[C@H](CC(C)C)c2noc(-c3cc(CC(C)C)on3)c2C2CC2)c(C)c1 [Example F-635]
Mouse RORγ; read-out: LUC EC50 mRORg
  EC50: < 3 µM
Human RORγ; read-out: LUC EC50 hRORg
  EC50: < 3 µM

## Cc1ccc(NC(=O)C[C@H](CCC(=O)O)c2nnn([C@H]3C[C@@H](CC(C)(C)C(C)C)C3)c2C(F)(F)F)c(F)c1 [Example F-707]
Mouse RORγ; read-out: LUC EC50 mRORg
  EC50: < 3 µM
Human RORγ; read-out: LUC EC50 hRORg
  EC50: < 3 µM

## Cc1ccc(NC(=O)C[C@H](CCC(=O)O)c2nnn([C@H]3C[C@@H](CC(C)(C)C(C)C)C3)c2C2CC2)c(F)c1 [Example F-706]
Mouse RORγ; read-out: LUC EC50 mRORg
  EC50: < 3 µM
Human RORγ; read-out: LUC EC50 hRORg
  EC50: < 3 µM

## CC(=O)N(C)[C@@H](CC(=O)Nc1ccc(C)cc1C)c1nnc(CCCC(C)(C)C)n1C1CC1 [Example F-354]
Mouse RORγ; read-out: LUC EC50 (μM) mRORg
  EC50: < 3 µM
Human RORγ; read-out: LUC EC50 (μM) hRORg
  EC50: < 3 µM

## C=CCOc1ccc(-c2nnc(CCC(=O)Nc3ccc(C)cc3C)n2C2CC2)cc1 [Example F-460]
Mouse RORγ; read-out: LUC EC50 (μM) mRORg
  EC50: > 3 µM
Human RORγ; read-out: LUC EC50 (μM) hRORg
  EC50: > 3 µM

## Cc1ccc(NC(=O)C[C@H](CC(N)=O)c2noc([C@H]3C[C@@H](CC(C)C)C3)c2C2CC2)c(C)c1 [Example F-642]
Mouse RORγ; read-out: LUC EC50 mRORg
  EC50: < 3 µM
Human RORγ; read-out: LUC EC50 hRORg
  EC50: < 3 µM
